Measurements from ChEMBL document CHEMBL4020841, “Structure Guided Lead Generation toward Nonchiral M. tuberculosis Thymidylate Kinase Inhibitors” (J Med Chem, 2018).
Activity calls are given as the source filed them. The rule behind the calls is not given here.

Each compound was assayed on Mycobacterium tuberculosis (assay: Antimicrobial activity against Mycobacterium tuberculosis H37Ra ATCC 25177 harboring pSMT1 luciferase reporter plasmid up to 64 uM after 7 days by luminometric method).
Format: functional
For `Cc1ccc(CN2CCC(n3cc(C)c(=O)[nH]c3=O)CC2)cc1`, the Activity was “inactive”. For `Cc1cn(C2CCN(Cc3ccc(Oc4ccccc4)cc3)CC2)c(=O)[nH]c1=O`, the Activity was “inactive”. In the case of `Cc1cn(C2CCN(Cc3cnc4ccccc4c3)CC2)c(=O)[nH]c1=O`, the Activity is reported as “inactive”. In the case of `Cc1cn(C2CCN(CCc3cccc(Oc4ccccc4)c3)CC2)c(=O)[nH]c1=O`, the Activity is reported as “inactive”. In the case of `Cc1cn(C2CCN(Cc3cccc(C(=O)O)n3)CC2)c(=O)[nH]c1=O`, the Activity is reported as “inactive”. `Cc1cn(C2CCN(Cc3ccc(C#N)cc3)CC2)c(=O)[nH]c1=O` was tested, and the Activity was “inactive”. In the case of `Cc1cn(C2CCN(CC3CCCCC3)CC2)c(=O)[nH]c1=O`, the Activity is reported as “inactive”. In the case of `Cc1cn(C2CCN(Cc3ccnc4ccccc34)CC2)c(=O)[nH]c1=O`, the Activity is reported as “inactive”. With `Cc1cn(C2CN(Cc3ccc(Oc4ccccc4)cc3)C2)c(=O)[nH]c1=O` the Activity was “inactive”. `Cc1cn(C2CCN(C(=O)c3ccc(Oc4ccccc4)cc3)CC2)c(=O)[nH]c1=O` was tested, and the Activity was “inactive”. With `Cc1cn(C2CCN(Cc3ccc(N(C)C)cc3)CC2)c(=O)[nH]c1=O` the Activity was “inactive”. `Cc1cccc(CN2CCC(n3cc(C)c(=O)[nH]c3=O)CC2)c1` was tested, and the Activity was “inactive”. With `Cc1cn(C2CCN(Cc3cc(Oc4ccccc4)c4ccc(Cl)cc4n3)CC2)c(=O)[nH]c1=O` the Activity was “inactive”. For `Cc1cn(C2CCN(Cc3cc4ccccc4o3)CC2)c(=O)[nH]c1=O`, the Activity was “inactive”. `Cc1cn(C2CN(Cc3cccc(Oc4ccccc4)c3)C2)c(=O)[nH]c1=O` was tested, and the Activity was “inactive”. With `Cc1cn(C2CCN(Cc3cccc(Oc4ccccc4)c3)CC2)c(=O)[nH]c1=O` the Activity was “inactive”. In the case of `Cc1cn(C2CCN(Cc3cncc4ccccc34)CC2)c(=O)[nH]c1=O`, the Activity is reported as “inactive”. `Cc1cn(C2CCN(Cc3cccc4ccccc34)CC2)c(=O)[nH]c1=O` was tested, and the Activity was “inactive”. `Cc1cn(CC2CCN(Cc3ccc(Oc4ccccc4)cc3)CC2)c(=O)[nH]c1=O` was tested, and the Activity was “inactive”. `Cc1cn(C2CCN(Cc3ccco3)CC2)c(=O)[nH]c1=O` was tested, and the Activity was “inactive”. With `Cc1cn(C2CCN(Cc3cc4ccccc4cn3)CC2)c(=O)[nH]c1=O` the Activity was “inactive”. With `Cc1cn(C2CCN(C(=O)c3cccc(Oc4ccccc4)c3)CC2)c(=O)[nH]c1=O` the Activity was “inactive”. For `Cc1cn(C2CCN(Cc3ccoc3)CC2)c(=O)[nH]c1=O`, the Activity was “inactive”. In the case of `Cc1cn(C2CCN(Cc3ccccc3)CC2)c(=O)[nH]c1=O`, the Activity is reported as “inactive”. With `Cc1cn(C2CCN(Cc3ccc4ccccc4c3)CC2)c(=O)[nH]c1=O` the Activity was “inactive”. `Cc1cn(C2CCN(Cc3ccccn3)CC2)c(=O)[nH]c1=O` was tested, and the Activity was “inactive”. With `Cc1cn(C2CCN(Cc3ccc(C(=O)O)cc3)CC2)c(=O)[nH]c1=O` the Activity was “inactive”. In the case of `Cc1cn(CC2CCN(Cc3cccc(Oc4ccccc4)c3)CC2)c(=O)[nH]c1=O`, the Activity is reported as “inactive”. In the case of `Cc1cn(C2CCN(Cc3nccc4ccccc34)CC2)c(=O)[nH]c1=O`, the Activity is reported as “inactive”. With `Cc1cn(C2CN(CCCc3cccc(Oc4ccccc4)c3)C2)c(=O)[nH]c1=O` the Activity was “inactive”. For `Cc1cn(C2CCN(Cc3cccnc3)CC2)c(=O)[nH]c1=O`, the Activity was “inactive”. In the case of `Cc1cn(C2CCN(Cc3ccncc3)CC2)c(=O)[nH]c1=O`, the Activity is reported as “inactive”. With `Cc1cn(C2CN(CCc3cccc(Oc4ccccc4)c3)C2)c(=O)[nH]c1=O` the Activity was “inactive”. In the case of `Cc1cn(C2CCN(Cc3ccc(Cl)cc3)CC2)c(=O)[nH]c1=O`, the Activity is reported as “inactive”. With `COc1ccc(CN2CCC(n3cc(C)c(=O)[nH]c3=O)CC2)cc1` the Activity was “inactive”.
